Source: US20190021989A1, “GALENIC FORMULATION COMPRISING A TOPICAL DRUG” (NOVARTIS AG, priority 2015, published 2019)

Target: T1, TLR7 (Homo sapiens, UniProt Q9NYK1)
T1 sequence (Q9NYK1 27-1049): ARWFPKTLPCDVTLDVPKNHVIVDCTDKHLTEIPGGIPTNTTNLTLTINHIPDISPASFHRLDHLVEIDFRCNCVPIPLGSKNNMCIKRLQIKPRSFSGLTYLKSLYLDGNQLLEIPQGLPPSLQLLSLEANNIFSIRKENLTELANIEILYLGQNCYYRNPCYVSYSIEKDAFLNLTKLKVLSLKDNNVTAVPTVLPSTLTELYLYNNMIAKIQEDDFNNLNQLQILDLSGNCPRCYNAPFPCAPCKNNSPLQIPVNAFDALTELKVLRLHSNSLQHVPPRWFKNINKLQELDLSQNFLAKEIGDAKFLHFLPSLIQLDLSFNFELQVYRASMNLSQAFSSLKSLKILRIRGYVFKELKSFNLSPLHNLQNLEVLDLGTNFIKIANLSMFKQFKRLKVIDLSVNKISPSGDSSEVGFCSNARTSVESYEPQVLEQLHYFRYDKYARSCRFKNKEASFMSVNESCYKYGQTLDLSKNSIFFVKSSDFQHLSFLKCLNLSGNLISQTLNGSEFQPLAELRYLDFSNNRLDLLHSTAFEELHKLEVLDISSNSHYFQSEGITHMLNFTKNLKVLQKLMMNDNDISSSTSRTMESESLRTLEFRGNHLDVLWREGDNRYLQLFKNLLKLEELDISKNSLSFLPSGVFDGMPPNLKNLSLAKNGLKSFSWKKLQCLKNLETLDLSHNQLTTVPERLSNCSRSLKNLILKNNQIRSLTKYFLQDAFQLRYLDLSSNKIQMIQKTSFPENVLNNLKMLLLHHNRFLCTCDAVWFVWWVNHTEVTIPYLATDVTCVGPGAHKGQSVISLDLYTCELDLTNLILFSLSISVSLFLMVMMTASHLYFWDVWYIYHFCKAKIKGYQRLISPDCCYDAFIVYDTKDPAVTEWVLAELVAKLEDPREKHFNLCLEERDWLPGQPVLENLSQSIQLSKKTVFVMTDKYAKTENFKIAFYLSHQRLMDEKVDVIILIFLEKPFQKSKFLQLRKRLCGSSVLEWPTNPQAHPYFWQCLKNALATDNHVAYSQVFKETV
Test: TLR7 agonist potency compared with Aldara
Conditions: more potent than Aldara

Compound: Cc1ccc2c(c1)nc(N)c1ncc(CCc3ccc(OCCC(C)C)cc3C)cc12 [compound of formula (II)]
- TLR7 agonist potency relative to Aldara: about 100 times
